Here are results for two compounds from PMC3048380, “Crystal Structure of an Integron Gene Cassette-Associated Protein from Vibrio cholerae Identifies a Cationic Drug-Binding Module” (PLoS ONE, 2011).

Where two headings read alike, the source gives them in different places.

In test [1] the target is Cass2 (Vibrio cholerae, UniProt D0VX23). The conditions noted are these: tryptophan fluorescence quenching, 24°C, pH 7.5; read-out: Ligand binding affinity KD, Cass2 wt.
Procedure: Fluorescence assays were used to detect binding of compounds to Cass2 and related mutants. Concentrated ligand solutions in Buffer B were titrated into a 400 µl sample of protein (180 nM in Buffer B) and Trp fluorescence monitored.
Fluorescence intensities were recorded at 22°C with a PerkinElmer LS55 fluorescence spectrophotometer using a 1 cm×0.2 cm quartz cell. […] Thus, fluorescence quenching was monitored by recording emission at 350 nm for all samples following excitation at 295 nm (slit widths 10 and 5 nm, respectively) with an integration time of 5 s. All readings were corrected for buffer background emission and sample dilution. Inner-filter effects were measured by titrating each compound into a 1.3 µM sample of tryptophan in Buffer B and the relative fluorescence quenching (ΔF) corrected as follows [64]:
ΔF = (F 0−F C (F W0/F WC))/F 0 where F 0 = fluorescence intensity of protein sample, F C = fluorescence intensity of protein with added compound, F W0 = fluorescence intensity of free tryptophan solution, F WC = fluorescence of tryptophan solution with added compound.
Standard deviation was calculated for the individual ΔF values from three independent experiments. […]
Test [2] addresses (E134Q)Cass2 (Vibrio cholerae, UniProt D0VX23, E134Q). As to conditions: pH 7.5; read-out: Ligand binding affinity KD, Cass2 E134Q.
For test [3], the target named is BmrR. The conditions noted are these: isothermal titration calorimetry binding assays; read-out: Ligand binding affinity KD, BmrR wt; cited from earlier work. (In general: In ITC the heat of successive injections is recorded.)
Test [4] addresses BmrR. As to conditions: equilibrium dialysis methods; read-out: Ligand binding affinity KD, BmrR wt; cited from earlier work. Background: In equilibrium dialysis only unbound substance equilibrates across the membrane.

For the compound benzalkonium chloride, the values for the dissociation constant Kd in test [1] and in test [2] were 100 nM and 300 ± 60 nM, respectively.

For the compound `c1ccc([P+](c2ccccc2)(c2ccccc2)c2ccccc2)cc1` [tetraphenylphosphonium (TPP), tetraphenylphosphonium chloride], the Kd (as a rule, the constant that tells how readily two partners part at equilibrium) in test [1] is 200 ± 80 nM; in test [2], 200 ± 130 nM; in test [3], 74000 ± 20500 nM; in test [4], 100000 nM.
